Reference: US20230000896A1, “ALDH3A2 INHIBITION AND FERROPTOSIS INDUCTION FOR CANCER THERAPY” (President and Fellows of Harvard College, priority 2019, published 2023)
Residues, ends and D or L forms follow the SMILES beside them. *: point of attachment. Cbz = O=C(OCc1ccccc1)*; CH2F = FC*

Legend:
[1] = test system: Aldh3a2-control and mutant LSPCs; test: frequency of live Aldh3a2-control and mutant LSPCs after drug treatment; format: cell-based, mouse; settings: three days
Excerpt: The specific mechanism for the reduced number of leukemic cells upon Aldh3a2 deletion was next investigated.
Lipid peroxidation has been linked to the induction of ferroptosis, a non-apoptotic, iron-dependent form of cell death. An increase in lysophospholipids, especially those lacking PUFA tails as was observed (FIG. 13E), is a hallmark of ferroptosis. In addition, the ability to rescue cell death by providing exogenous MUFAs, as was found (FIG. 12H), is another feature of ferroptotic cell death. To further confirm these findings cells were treated with ferrostatin, an inhibitor of iron-dependent oxidative damage.
To further assess the relationship to ferroptosis, a key enzyme protecting cells from ferroptotic cell death, glutathione peroxidase 4 (Gpx4) was genetically and pharmacologically targeted. […] Recent findings have shown that activation of MUFAs by Acs13 can also promote resistance to ferroptosis. Acs13 expression was not different between Aldh3a2 control and mutant leukemic cells (FIG. 13F).
(§1) RSL3 (at 5 uM), 4-HNE (5 uM) and ZVAD (at 10 uM) was added to Lin-Kit- or Lin-Kit+ leukemic cells in RPMI containing 10 ng/ul of murine IL3, IL6 and SCF. Ferrostatin (10 uM) was added to bulk leukemic cells in RPMI containing 10 ng/ul of murine IL3, TPO and FLT3L. Number of cells were measured by Celltiter GloR 2.0 assay at days 0, 1 and 3. 10 mM of NAC was added to RPMI with 10 percent FBS and 1 percent P/S for relevant rescue experiments. Drugs were purchased from Sigma.

[2] = test system: leukemic stem and progenitor cells (LSPCs); test: cellular ROS by flow cytometry in Aldh3a2-control and mutant LSPCs; format: cell-based, mouse; settings: FIG. 5C
Excerpt: (§2) Aldehyde dehydrogenases metabolize aldehydes to mitigate oxidative stress and prevent lipid peroxidation in the cell. […] Next, oxidative damage in AML cells lacking Aldh3a2 was examined. […] To further assess deficits in detoxification capacity, the effects of 4-hydroxynonenal (4-HNE) was studied next, a commonly investigated fatty aldehyde and a byproduct of arachidonic acid catabolism, on cellular ROS, lipid peroxidation and proliferation in Aldh3a2-deficient leukemia stem and progenitor cells. […] Lastly, normal granulocyte monocyte precursors (N-GMPs) were investigated. […] Spleens from Aldh3a2-Ctrl and Aldh3a2-mut mice were utilized to obtain single cell suspensions and were incubated with C11 Bodipy lipid peroxidation sensor (ThermoFisher Cat #C10445) or CellRox reagent (ThermoFisher Cat #C10491) for 30 minutes at […]. Cells were stained with biotinylated antibodies against lineage markers, SA-Pacific Orange conjugate (ThermoFisher) and APC Rat Anti-Mouse CD117 (BD Biosciences) and read on the LSRII flow cytometer. Lipid peroxidation and cellular ROS was assessed in Lineage-, c-Kit^+ and Lineage^−, c-Kit^hi populations. RSL3 (at 5 uM), 4-HNE (5 uM) and ZVAD (at 10 uM) was added to Lin-Kit- or Lin-Kit+ leukemic cells in RPMI containing 10 ng/ul of murine IL3, IL6 and SCF. […] Number of cells were measured by Celltiter GloR 2.0 assay at days 0, 1 and 3. […]

[3] = test system: leukemic stem and progenitor cells (LSPCs); test: lipid peroxidation by flow cytometry in Aldh3a2-control and mutant LSPCs; format: cell-based, mouse; settings: FIG. 5D
Excerpt: as §2

[4] = test system: leukemic stem and progenitor cells (LSPCs); test: growth kinetics of Aldh3a2-control and mutant LSPCs treated with 4HNE; format: cell-based, mouse; settings: 4-HNE 5 uM, FIG. 5E
Excerpt: Aldehyde dehydrogenases metabolize aldehydes to mitigate oxidative stress and prevent lipid peroxidation in the cell. […] Next, oxidative damage in AML cells lacking Aldh3a2 was examined. […] To further assess deficits in detoxification capacity, the effects of 4-hydroxynonenal (4-HNE) was studied next, a commonly investigated fatty aldehyde and a byproduct of arachidonic acid catabolism, on cellular ROS, lipid peroxidation and proliferation in Aldh3a2-deficient leukemia stem and progenitor cells. […] Lastly, normal granulocyte monocyte precursors (N-GMPs) were investigated. […] RSL3 (at 5 uM), 4-HNE (5 uM) and ZVAD (at 10 uM) was added to Lin-Kit- or Lin-Kit+ leukemic cells in RPMI containing 10 ng/ul of murine IL3, IL6 and SCF. Ferrostatin (10 uM) was added to bulk leukemic cells in RPMI containing 10 ng/ul of murine IL3, TPO and FLT3L. Number of cells were measured by Celltiter GloR 2.0 assay at days 0, 1 and 3. 10 mM of NAC was added to RPMI with 10 percent FBS and 1 percent P/S for relevant rescue experiments. Drugs were purchased from Sigma.

[5] = test system: Aldh3a2-control and mutant leukemic cells; test: fatty acid rescue experiments (viability by flow cytometry); format: cell-based, mouse; settings: FIG. 12H
Experimental: By detoxifying fatty aldehydes, Aldh3a2 generates fatty acids that can be used for biosynthetic purposes (FIG. 12A). […] To further investigate the consequences of this depletion of 18-carbon fatty acids in Aldh3a2 knockout cells lipidomics analysis was performed on leukemic cells derived from conditional knockout mice (FIGS. 13A-13E). Several, but not all, phospholipid species containing 18-carbon fatty acid tails were decreased in mutant cells across lipid classes, including phosphatidylcholines, phosphatidylethanolamines, cardiolipins and phosphatidic acids (FIGS. 13A-13D).
Cell viability was analyzed using Annexin V-APC (BioLegend) and 7-AAD (ThermoFisher Scientific) with Annexin V^−7-AAD^− cells considered as viable cells. Analysis was performed on A BD LSR II flow cytometer.
Bulk GFP+ cells sorted from wildtype or mutant mice were plated in a 24 well plate at 50,000 cells per well. Oleic acid (Sigma), complexed to fatty acid-free bovine serum albumin, was added at concentrations of 62.5, 125 or 250 μM. Ethanol/albumin was used as control. 72 hours later cell viability was analyzed by flow cytometry.

Aldh3a2 = test: Q-PCR validation of Aldh3a2 knockdown in L-GMPs; format: cell-based, mouse; settings: FIG. 2B
Experimental: (§3) However, its functional role in normal and malignant hematopoiesis is unclear. […] Aldh3a2 knockdown in L-GMPs decreased the number of cells in a methylcellulose assay (FIG. 2C and FIG. 9A) that quantifies growth on a per cell basis.
RNA was extracted from cells using the RNeasy Micro Kit (Qiagen) and RT-PCR was performed using the SuperScript™ IV One-Step RT-PCR System according to the manufacturer's instructions. Taqman probes were used to perform Q-PCR for murine and human Aldh3a2.

L-GMPs = test: methylcellulose assay of shRNA-infected L-GMPs; format: cell-based, mouse; settings: compared to control shRNA, FIG. 2C
Experimental: as §3
(§4) Ten thousand N-GMPs or L-GMPs infected with lentiviruses expressing relevant shRNAs were added to 3 cc of methylcellulose (StemCell Technologies) plated per well of a 6 well plate. Number of cells were counted on day 7.

[6] = test system: MLL-AF9 leukemia (L-GMPs); test: survival of sublethally irradiated C57BL/6J mice transplanted with shRNA-expressing L-GMPs; format: in vivo, mouse; settings: ten thousand L-GMPs transplanted, vs control shRNA, FIG. 2D
Excerpt: To evaluate Aldh3a2 knockdown in vivo, ten thousand L-GMPs expressing Aldh3a2-sh-1, Aldh3a2-sh-2 or control shRNA were transplanted into sublethally irradiated C57BL/6J recipient mice and followed over time.

N-GMPs = test: methylcellulose assay of shRNA-infected N-GMPs; format: cell-based, mouse; settings: compared to control shRNA, FIG. 3A
Excerpt: Then a constitutive knockout mouse model (KO) was utilized where Aldh3a2 enzyme activity was decreased to less than 50 percent of wild-type (WT) control mice (FIG. 3B). (This model consists of a deletion of exon 4 of the Aldh3a2 gene which completely destroys Aldh3a2 enzyme activity but assays of cell homogenates measure total fatty aldehyde oxidizing activity including aldehyde dehydrogenases other than Aldh3a2).
as §4

THP-1 cells = test: growth kinetics of ALDH3A2-depleted THP-1 cells treated with NAC; format: cell-based, human; settings: 10 mM NAC, FIG. 12D
Experimental: In cells cultured in [1,2-^13C2]glucose, the oxPPP generates singly ^13C labeled (M1) intermediates, glycolysis generates doubly 13C labeled (M2) intermediates, and the M1/M2 ratio reflects the oxPPP flux relative to glycolysis (FIG. 12E). […] Cells lacking ALDH3A2 thus fail to increase antioxidant defense mechanisms to mitigate the increased oxidative stress and prevent lipid peroxidation.
as §1

COC(=O)c1ccc([C@@H]2c3[nH]c4ccccc4c3C[C@@H](C(=O)OC)N2C(=O)CCl)cc1 [RSL3]
sensitivity of Aldh3a2 deficient Lin-cKit+ AML cells ([1]; RSL3 5 uM, FIG. 6I and 14C): increased sensitivity

CCCCCC(O)/C=C/C=O (stereo not shown) [4-HNE, 4-hydroxynonenal]
cellular ROS ([2]; 4-HNE exposure for 24 hours): increased cellular ROS in mutant but not control cells | lipid peroxidation ([3]; 4-HNE exposure): increased levels of lipid peroxidation in mutant but not in control cells | sensitivity to 4HNE, mutant versus control [4]: significantly greater in mutant than in control cells | cell growth ([4]; control and mutant cells): reduced cell growth

CCCCCCCC/C=C\CCCCCCCC(=O)O [oleic acid]
rescue of the effects of Aldh3a2 depletion ([5]; exogenous oleic acid (18:1), conditional mutant mice): rescued the effects of Aldh3a2 depletion | concentration of maximum rescue of cells from death ([5]; three days culture, 62.5, 125 or 250 μM tested): 125 µM

CCOC(=O)c1ccc(NC2CCCCC2)c(N)c1 [Ferrostatin]
cell death in Aldh3a2 mutant leukemia cells ([1]; Ferrostatin 10 uM, FIG. 6H and 14B): completely prevented the cell death

Vitamin E
total ROS ([2]; 4HNE plus vitamin E treatment): decreased total ROS in control cells but was unable to do so in mutant cells | lipid peroxidation ([3]; 4HNE plus vitamin E treatment): significantly decreased lipid peroxidation in both populations

Aldh3a2-sh-2: shRNA against mouse Aldh3a2, CCTCTGGCTCTTTATGTATTT (SEQ ID NO: 2)
Aldh3a2 expression in L-GMPs (Aldh3a2): decreased Aldh3a2 expression in L-GMPs | number of L-GMPs in methylcellulose (L-GMPs): significantly decreases the number of L-GMPs in methylcellulose | survival of recipient mice [6]: survive significantly longer than control animals

Aldh3a2-sh-1: shRNA against mouse Aldh3a2, GCAGGAAATGCTGTGATTATA (SEQ ID NO: 1)
Aldh3a2 expression in L-GMPs (Aldh3a2): decreased Aldh3a2 expression in L-GMPs | number of L-GMPs in methylcellulose (L-GMPs): significantly decreases the number of L-GMPs in methylcellulose | survival of recipient mice [6]: survive significantly longer than control animals | number of N-GMPs in methylcellulose (N-GMPs): no difference in the number of N-GMPs

CC(NC(=O)C(NC(=O)OCc1ccccc1)C(C)C)C(=O)NC(CC(=O)O)C(=O)CF (stereo not drawn) [Z-VAD] (Cbz-Val-Ala-Asp-CH2F; configuration not given here)
rescue of cell death in Aldh3a2 deficient cells ([1]; ZVAD 10 uM, Lin- cKit+ cells, FIG. 6F): did not rescue the cell death

CC(=O)N[C@@H](CS)C(=O)O [NAC, N-Acetyl-L-Cysteine]
rescue of ALDH3A2 depleted THP-1 cells (THP-1 cells): partial rescue in the population of cells with moderate (sh-A) but not severe (sh-B) ALDH3A2 depletion
